Measured values from PubChem BioAssay (NCI).
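A five-concentration, 48-hour dose response in 96-well plates underlies each endpoint, interpolated linearly between surrounding concentrations. The concentration for 50% growth inhibition is given as GI50. TGI denotes the concentration required for complete inhibition of growth.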

What was measured:
Assay in all cases: inhibition of tumour cell growth, NCI panel, 48 h
TK-10 renal = system: TK-10 renal
OVCAR-5 ovarian = system: OVCAR-5 ovarian
SK-MEL-5 melanoma = system: SK-MEL-5 melanoma
IGROV1 ovarian = system: IGROV1 ovarian
OVCAR-8 ovarian = system: OVCAR-8 ovarian
NCI-H23 lung = system: NCI-H23 lung
RXF 393 renal = system: RXF 393 renal
SK-MEL-2 melanoma = system: SK-MEL-2 melanoma
MDA-MB-231 breast = system: MDA-MB-231 breast
T-47D breast = system: T-47D breast

Structure (SMILES)	TGI (TK-10 renal) [µM]	TGI (OVCAR-5 ovarian) [µM]	TGI (SK-MEL-5 melanoma) [µM]	TGI (IGROV1 ovarian) [µM]	TGI (OVCAR-8 ovarian) [µM]	TGI (NCI-H23 lung) [µM]	TGI (RXF 393 renal) [µM]	TGI (SK-MEL-2 melanoma) [µM]	GI50 (TK-10 renal) [µM]	GI50 (OVCAR-5 ovarian) [µM]	GI50 (SK-MEL-5 melanoma) [µM]	GI50 (MDA-MB-231 breast) [µM]	TGI (MDA-MB-231 breast) [µM]	GI50 (IGROV1 ovarian) [µM]	GI50 (OVCAR-8 ovarian) [µM]	GI50 (T-47D breast) [µM]	TGI (T-47D breast) [µM]	GI50 (NCI-H23 lung) [µM]	GI50 (SK-MEL-2 melanoma) [µM]	GI50 (RXF 393 renal) [µM]
COC(=O)/C(C#N)=C1\CCc2ccccc21	> 100	> 100	> 100	> 100	> 100	> 100	> 100	> 100	–	–	–	–	–	–	–	–	–	–	–	–
Nc1ccc(C(=O)NN2C(=O)C(Cl)C2c2cccc(O)c2)cc1 (configuration not stated)	30.5	41.9	31.7	28.6	54.4	33.2	–	30.5	–	–	–	–	–	–	–	–	–	–	–	–
Nc1n[nH]c2ccc([C@@H]3Nc4cc5[nH]ncc5cc4[C@H]4C5CCC(C5)[C@@H]34)cc12 (some centres not stated)	> 95.9	> 80.9	6.57	41.8	> 100	> 71.7	–	> 70.5	17.2	0.565	0.493	0.764	98.1	0.533	0.511	0.498	79.8	0.472	0.736	–
COc1cccc(C2C(C#N)=C(N)Oc3c2ccc2ccccc32)c1 (configuration not stated)	27.3	19.8	0.108	14.3	19.2	6.74	0.975	16.5	5.71	0.0801	< 0.0185	0.0433	16.3	0.0205	0.0346	–	–	0.026	0.0588	< 0.0161
COc1cc(/C=C\c2ccncc2)cc(OC)c1OC	> 100	> 100	> 100	> 100	> 100	–	> 100	–	–	–	–	–	–	–	–	–	–	–	–	–
COc1ccc(-c2ccc(/C=N/n3c(COc4ccccc4Cl)n[nH]c3=S)o2)c([N+](=O)[O-])c1	39.5	> 100	–	> 100	55.4	41.8	52.1	–	13.2	44.9	–	46.7	> 100	52.7	21.3	21.8	86.2	18.5	–	15.5
Cc1cc(C)nc(NS(=O)(=O)c2ccc(NC(=O)c3cccn4c(=O)c5ccccc5nc34)cc2)n1	> 100	> 100	> 100	> 100	85.2	> 100	67.4	> 100	–	–	–	–	–	–	–	–	–	–	–	–
CCN(CC)CCC(CNc1c(C)cnc2cc(Cl)ccc12)c1ccc(Cl)cc1 (configuration not stated)	23.8	24	3.18	–	25.5	24.1	18.4	14.1	10.9	8.93	1.73	–	–	–	10.8	2.57	10.5	10.3	3.91	4.39
